{"source": "patent US11649195B2", "about": "“Smart release nitrogen-containing fertilizer granules” (RYNAN TECHNOLOGIES PTE. LTD., priority 2018, dated 2023)", "key": {"[1]": {"conditions": "of associated acids; cited from earlier work"}, "Brassica integrifolia": {"test_system": "Brassica integrifolia", "assay": "Growing Brassica integrifolia in planting pots", "format": "in vivo", "conditions": "day 31 after planting, 10 g fertilizer per pot", "description": "Fertilizers comprising different functional layers were used for growing Brassica integrifolia. The experiments were done in plastic planting pots containing 5 Kg of a growth media comprising 50% coconut fibers and 50% topsoil. The N, P2O5 and K2O contents in 100 g of the growth media were 7.7 mg, 32 mg and 34 mg, respectively. Ten grams of urea were buried in the growth media at around 3 cm depth as a comparative example (Example 41). Alternatively, 10 grams of various smart N-fertilizers comprising different organic functional layer 104 were buried into the growth media at around 3 cm depth (Examples 42 and following). Then, ten seeds of Brassica integrifolia (also called English spinach) were placed in each planting pot. The planting pots were placed outdoor and wetted with 200 ml water every day.\nSmart N-Fertilizers with different organic functional layer comprising tannic acid and its modifiers were used for growing Brassica integrifolia. These experiments were carried out as described above for Examples 42 to 48.\nSmart N-Fertilizers with different organic functional layer were used for growing Brassica integrifolia. These experiments were carried out as described above for Examples 42 to 48, with the exception of Example 55 (comparative), in which ten grams of DAP were buried in the growth media at around 3 cm depth as a comparative example."}, "[2]": {"conditions": "Examples 41, 49-54 (tannic acid layers)"}}}
{"smiles": "O=C(O)Cc1cccc2ccccc12", "note": "[1-Naphthalene acetoate, 1-Naphthalene Acetic Acid]", "values": [{"measurement": "pKa", "setting": "[1]", "value": 4.23}]}
{"smiles": "O=C(O)COc1ccc(Cl)cc1", "note": "[4-Chlorophenyloxy acetoate, 4-Chlorophenoxyacetic Acid]", "values": [{"measurement": "pKa", "setting": "[1]", "value": 3.58}]}
{"smiles": "N.N.O=P(O)(O)O", "note": "[DAP, Diammonium phosphate]", "values": [{"measurement": "Height", "setting": "Brassica integrifolia; Examples 55-64 (DAP core)", "value": 7.60, "unit": "cm"}, {"measurement": "Leaf length", "setting": "Brassica integrifolia; Examples 55-64 (DAP core)", "value": 4.20, "unit": "cm"}, {"measurement": "Leaf width", "setting": "Brassica integrifolia; Examples 55-64 (DAP core)", "value": 2.40, "unit": "cm"}, {"measurement": "Total yield", "setting": "Brassica integrifolia; Examples 55-64 (DAP core)", "value": 15, "unit": "gram"}, {"measurement": "Weight of 6 plants", "setting": "Brassica integrifolia; Examples 55-64 (DAP core)", "value": 9, "unit": "gram"}]}
{"smiles": "NC(N)=O", "note": "[Urea, urea]", "values": [{"measurement": "Height", "setting": "Brassica integrifolia; [2]", "value": 4.90, "unit": "cm"}, {"measurement": "Leaf length", "setting": "Brassica integrifolia; [2]", "value": 2.00, "unit": "cm"}, {"measurement": "Leaf width", "setting": "Brassica integrifolia; [2]", "value": 1.00, "unit": "cm"}, {"measurement": "Total yield", "setting": "Brassica integrifolia; [2]", "value": 5, "unit": "gram"}, {"measurement": "Weight of 6 plants", "setting": "Brassica integrifolia; [2]", "value": 5, "unit": "gram"}, {"measurement": "Height", "setting": "Brassica integrifolia; Examples 41-48", "value": 4.90, "unit": "cm"}, {"measurement": "Leaf length", "setting": "Brassica integrifolia; Examples 41-48", "value": 2.00, "unit": "cm"}, {"measurement": "Leaf width", "setting": "Brassica integrifolia; Examples 41-48", "value": 1.00, "unit": "cm"}, {"measurement": "Total yield", "setting": "Brassica integrifolia; Examples 41-48", "value": 5, "unit": "gram"}, {"measurement": "Weight of 6 plants", "setting": "Brassica integrifolia; Examples 41-48", "value": 5, "unit": "gram"}]}
